{"source": "PubChem BioAssay AID488788", "about": "(Broad Institute, 2010)", "note": "Results filed as inconclusive are left out. The source made the active and inactive calls. The rule behind the calls is not given here."}
{"target": "CAAX prenyl protease 2 (Saccharomyces cerevisiae (strain ATCC 204508 / S288c)) (UniProt Q03530)", "sequence (Q03530 whole entry, looked up)": "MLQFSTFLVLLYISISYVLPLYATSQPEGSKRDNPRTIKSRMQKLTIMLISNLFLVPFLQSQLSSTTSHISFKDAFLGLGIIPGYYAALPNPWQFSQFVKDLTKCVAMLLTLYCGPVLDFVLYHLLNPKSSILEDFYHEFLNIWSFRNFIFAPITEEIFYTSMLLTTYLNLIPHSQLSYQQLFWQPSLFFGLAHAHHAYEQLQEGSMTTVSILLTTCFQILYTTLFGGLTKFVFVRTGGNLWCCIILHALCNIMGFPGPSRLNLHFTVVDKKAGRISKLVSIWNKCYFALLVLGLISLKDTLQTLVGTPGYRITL", "assay": "Rce1p protease inhibitors, dose response, biochemical, plate reader, cherry-pick (AID 488788)", "conditions": "Rce1p enzyme activity"}
{"smiles": "CC1COc2c(N3CCN(C)CC3)c(F)cc3c(=O)c(C(=O)O)cn1c23", "note": "(configuration not stated)", "AC50": "> 10 µM (inactive)"}
{"target": "CAAX prenyl protease 2 (Saccharomyces cerevisiae (strain ATCC 204508 / S288c)) (UniProt Q03530)", "assay": "Rce1p protease inhibitors, dose response, biochemical, plate reader, cherry-pick (AID 488788)", "conditions": "Rce1p enzyme activity, at 10 µM (top of the series)"}
{"smiles": "CCC(COC)NC(=O)CCc1nnc(Cc2cccc(C(F)(F)F)c2)o1", "note": "(configuration not stated)", "activity change, negative = inhibition": "inactive"}
{"smiles": "Oc1ccc(-c2cn3cc(C(F)(F)F)ccc3n2)cc1", "activity change, negative = inhibition": "inactive"}
{"smiles": "COc1ccc(-c2nc3ncccc3o2)cc1NC(=O)c1ccco1", "activity change, negative = inhibition": "inactive"}
{"smiles": "COc1cc(-c2nc3ccccn3c2/N=C/c2cccc(OC)c2O)ccc1O", "activity change, negative = inhibition": "inactive"}
{"smiles": "O=C1NC(c2ccc(Br)cc2)Nc2ccccc21", "note": "(configuration not stated)", "activity change, negative = inhibition": "inactive"}
{"smiles": "Cc1ccc(S(=O)(=O)Oc2ccc(C3C4=C(CCCC4=O)N(CCC(=O)O)C4=C3C(=O)CCC4)cc2Cl)cc1", "activity change, negative = inhibition": "inactive"}
{"smiles": "Cc1nc(N2CCOCC2)c2cc(-c3ccccc3)sc2n1", "activity change, negative = inhibition": "inactive"}
{"smiles": "CC(C)[C@H](NC(=O)OCc1ccccc1)C(=O)OCC(=O)Nc1c(F)cccc1F", "activity change, negative = inhibition": "inactive"}
{"smiles": "COc1cccc(NC(=O)Nc2cccn(Cc3ccc(C)cc3)c2=O)c1", "activity change, negative = inhibition": "inactive"}
{"smiles": "Cc1cccc(N2C(=O)c3cccc4c(N5CCCCC5)c([N+](=O)[O-])cc(c34)C2=O)c1C", "activity change, negative = inhibition": "inactive"}
{"smiles": "COc1ccc(OC)c(/C=N/c2c(-c3ccc(O)c(OC)c3)nc3ccccn23)c1", "activity change, negative = inhibition": "inactive"}
{"smiles": "CCc1nc(Nc2ccncc2)c2oc3ccccc3c2n1", "activity change, negative = inhibition": "inactive"}
{"smiles": "CCOC(=O)c1c(-c2ccc(OC)cc2)oc2ccc(OC(=O)N(C)C)cc12", "activity change, negative = inhibition": "inactive"}
{"smiles": "COc1cccc(-c2nc(C#N)c(N3CCN(C(=O)c4ccco4)CC3)o2)c1", "activity change, negative = inhibition": "inactive"}
{"smiles": "Cc1cc(NS(=O)(=O)c2ccccc2)c([N+](=O)[O-])cc1C", "activity change, negative = inhibition": "inactive"}
{"smiles": "COc1ccc(-c2cc(C(F)(F)F)nc(SCC(=O)NCc3cnn(C)c3C)n2)cc1OC", "activity change, negative = inhibition": "inactive"}
{"smiles": "O=C(N/N=C/C1CC=CCC1)c1ccc(O)cc1O", "note": "(configuration not stated)", "activity change, negative = inhibition": "inactive"}
{"smiles": "CCOC(=O)c1c(C2COc3ccccc3O2)csc1NC(=O)c1ccccc1", "note": "(configuration not stated)", "activity change, negative = inhibition": "inactive"}
{"smiles": "O=C1CN(S(=O)(=O)c2ccc([N+](=O)[O-])cc2)CC(=O)N1", "activity change, negative = inhibition": "inactive"}
{"smiles": "COc1ccc(-c2ccc(-c3nnc(-c4cc(OC)ccc4OC)o3)cc2)cc1", "activity change, negative = inhibition": "inactive"}
{"smiles": "Cc1ccccc1OC(C)C(=O)N1CCC(Cc2ccccc2)CC1", "note": "(configuration not stated)", "activity change, negative = inhibition": "inactive"}
{"smiles": "CCOc1c2ccc(C(=O)NCc3ccco3)cc2nn1CCOC", "activity change, negative = inhibition": "inactive"}
{"smiles": "O=C(O)CCCC[C@@H]1SC[C@@H]2NC(=O)N[C@@H]21", "activity change, negative = inhibition": "inactive"}
{"smiles": "CCOc1ccccc1CNC(=O)c1cc2occc2n1C", "activity change, negative = inhibition": "inactive"}
{"smiles": "O=C1CCCN1CC(O)CS(=O)(=O)c1ccccc1", "note": "(configuration not stated)", "activity change, negative = inhibition": "inactive"}
{"smiles": "COc1ccc(S(=O)(=O)N(CC(=O)N2CCCC2)Cc2ccccc2)cc1", "activity change, negative = inhibition": "inactive"}
{"smiles": "O=C(COc1ccccc1)Nc1cccc(-c2nc3cc4ccccc4cc3[nH]2)c1", "activity change, negative = inhibition": "inactive"}
{"smiles": "CC(C)CC(=O)NC(=S)Nc1ccc(S(=O)(=O)Nc2nccs2)cc1", "activity change, negative = inhibition": "inactive"}
{"smiles": "Cc1cc2cc(C#N)c(NCCNC(=S)NCCCN3CCOCC3)nc2cc1C", "activity change, negative = inhibition": "inactive"}
{"smiles": "COc1cc2c(cc1OC)C(C)N(C(=O)CCNC(=O)c1ccccc1)CC2", "note": "(configuration not stated)", "activity change, negative = inhibition": "inactive"}
{"smiles": "CC1=C(C(=O)N2CCOCC2)C(c2ccccc2F)C2=C(CC(C)(C)CC2=O)N1", "note": "(configuration not stated)", "activity change, negative = inhibition": "inactive"}
{"smiles": "COc1cc(-c2c(C#N)c(N)nc3c2c(C)nn3-c2ccc(C)c(C)c2)cc(OC)c1OC", "activity change, negative = inhibition": "inactive"}
{"smiles": "COc1ccc(CC(=O)OCC(=O)Nc2ccc(Br)cc2)cc1", "activity change, negative = inhibition": "inactive"}
{"smiles": "Cc1nc(N2CCOCC2)c2c(C)c(C(=O)Nc3ccccc3C(F)(F)F)sc2n1", "activity change, negative = inhibition": "inactive"}
{"smiles": "Cn1c(=O)c(C(=O)NCCO)c(O)c2ccccc21", "activity change, negative = inhibition": "inactive"}
{"smiles": "Cc1ccc(-c2cc3cccc[n+]3cc2-c2ccc(C)cc2)cc1", "activity change, negative = inhibition": "inactive"}
{"smiles": "CCN1CCN(c2ccc(NC(=O)c3cccc(OCc4ccccc4)c3)cc2)CC1", "activity change, negative = inhibition": "inactive"}
{"smiles": "C=C(C)C1(O)OC(=O)C=C1OC", "note": "(configuration not stated)", "activity change, negative = inhibition": "inactive"}
{"smiles": "CCN(CC)c1ccc(C(=O)c2ccccc2C(=O)O)c(O)c1", "activity change, negative = inhibition": "inactive"}
{"smiles": "Nc1nc2c(ncn2COC(CO)CO)c(=O)[nH]1", "activity change, negative = inhibition": "inactive"}
{"smiles": "COc1ccc2oc(-c3ccccc3)c(C(=O)N3CCOCC3)c2c1", "activity change, negative = inhibition": "inactive"}
{"smiles": "COc1ccc(OC)c(NC(=O)c2cc3oc4ccccc4c3cc2O)c1", "activity change, negative = inhibition": "inactive"}
{"smiles": "COc1ccc(C)c2sc(NC(=O)C3=COCCO3)nc12", "activity change, negative = inhibition": "inactive"}
{"smiles": "CCC(=O)Nc1cccc(NC(=S)NC(=O)c2cccs2)c1", "activity change, negative = inhibition": "inactive"}
{"smiles": "CC(C)c1ccc(NC(=O)COc2nncc3ccccc23)cc1", "activity change, negative = inhibition": "inactive"}
{"smiles": "COC(=O)Cn1c(CCC(=O)O)ccc1-c1ccccc1", "activity change, negative = inhibition": "inactive"}
{"smiles": "CCN1CCN(Cc2c(O)ccc3c(=O)c(-c4ccccc4OC)coc23)CC1", "activity change, negative = inhibition": "inactive"}
{"smiles": "O=C(Nc1ccc(F)cc1)Oc1ccccc1N1CCOCC1", "activity change, negative = inhibition": "inactive"}
{"smiles": "CCCCNC(=O)c1cc2c(=O)n3cccc(C)c3nc2n(Cc2ccccc2)c1=N", "activity change, negative = inhibition": "inactive"}
{"smiles": "COc1ccc2c(c1)cc(C(=O)N[C@@H](CCSC)C(=O)N1CCC(C(=O)O)CC1)n2C", "activity change, negative = inhibition": "inactive"}
{"smiles": "Cn1c(CN2CCOCC2)c(C#N)c2ccccc21", "activity change, negative = inhibition": "inactive"}
{"smiles": "COc1cccc(-c2csc(N3CCN(C(=O)NC45CC6CC(CC(C6)C4)C5)CC3)n2)c1", "activity change, negative = inhibition": "inactive"}
{"smiles": "CC(C)C(NC(=O)c1ccco1)C(=O)NCC(c1ccco1)N1CCCCC1", "note": "(configuration not stated)", "activity change, negative = inhibition": "inactive"}
{"smiles": "Nc1nc2n[nH]nc2c(=O)[nH]1", "activity change, negative = inhibition": "inactive"}
{"smiles": "COc1ccc(-c2cn3ccccc3n2)cc1[N+](=O)[O-]", "activity change, negative = inhibition": "inactive"}
{"smiles": "CCn1c(C)nc2c(=O)oc3ccccc3c21", "activity change, negative = inhibition": "inactive"}
{"smiles": "O=C1OCCN1C(=O)[C@H]1[C@H](c2ccc(F)cc2)C(c2ccc(F)cc2)=NN1c1ccc(Br)cc1", "activity change, negative = inhibition": "inactive"}
{"smiles": "C#CCNC(=O)C1=C[C@@H](C2CCCCC2)C[C@@H](OCc2ccc(CO)cc2)O1", "activity change, negative = inhibition": "inactive"}
{"smiles": "COC(C/C=C/[C@H](O)[C@@H](C)OCc1ccccc1)OC", "activity change, negative = inhibition": "inactive"}
{"smiles": "Cc1cc(N/N=C/c2ccc(O)c(C)c2O)nc(-c2ccccc2O)n1", "activity change, negative = inhibition": "inactive"}
{"smiles": "CCn1c(COc2cccc(C)c2)nnc1SCC(=O)NC1CCCC1", "activity change, negative = inhibition": "inactive"}
{"smiles": "Cc1c(Cl)c([N+](=O)[O-])nn1CC(=O)N1CCCc2ccccc21", "activity change, negative = inhibition": "inactive"}
{"smiles": "CC(C)C[C@H](NC(=O)c1nc[nH]c1C(=O)N1CCNCC1)C(=O)OCc1ccccc1", "activity change, negative = inhibition": "inactive"}
{"smiles": "Cc1ccc(C(=O)N2N=C(c3ccccc3O)CC2c2ccccc2)cc1", "note": "(configuration not stated)", "activity change, negative = inhibition": "inactive"}
{"smiles": "CCCCOc1ccc(C(=O)Nn2c(-c3cccs3)nc3ccccc3c2=O)cc1", "activity change, negative = inhibition": "inactive"}
{"smiles": "CC(C)CC(=O)Nc1ccc2oc(-c3cccnc3)nc2c1", "activity change, negative = inhibition": "inactive"}
